Reference: patent US4246262A, “Derivatives of amidinopenicillanic acid” (Leo Pharmaceutical Products, Ltd. A/S, priority 1977, dated 1981)
In brackets after ≈: the same amount, converted by molar mass. Structures can show the parent of a compound that is named as a salt.

Assays:
Assay in all cases: antibacterial activity, IC50 (concentration required for 50 percent inhibition)
Format in all cases: cell-based
[1] = system: Pseudomonas aeruginosa PS 18s; conditions: PS18S
From the text: (§1) In the table below, the antibacterial activity of the compound of Example 2 is compared to that of the known compounds Ampicillin and Mecillinam.
(§2) In the table IC50 means the concentration required for 50 percent inhibition.

[2] = system: Enterobacter cloacae P 99; conditions: P99
From the text: as §1, §2

E.coli W3110 (RTEM) = conditions: Escherichia coli
From the text: as §1, §2

[3] = system: Klebsiella pneumoniae ATCC 10273; conditions: ATCC10273
From the text: as §1, §2

[4] = system: Salmonella typhimurium NCTC 5710; conditions: Salmonella enterica
From the text: as §1, §2

[5] = system: Pseudomonas aeruginosa BA 2 Leo strain; conditions: BA2LEOSTRAIN
From the text: as §1, §2

E.coli HA 2 Leo strain = conditions: Escherichia coli, HA2LEOSTRAIN
From the text: as §1, §2

[6] = system: Salmonella cholerasuis NCTC 5735; conditions: NCTC5735
From the text: as §1, §2

Row | Compound | IC50 [1] | IC50 [2] | IC50 (E.coli W3110 (RTEM)) | IC50 [3] | IC50 [4] | IC50 [5] | IC50 (E.coli HA 2 Leo strain) | IC50 [6]
1 | CC1(C)S[C@@H]2[C@H](NC(=O)[C@H](N)c3ccccc3)C(=O)N2[C@H]1C(=O)O [Ampicillin] | 50 µg/mL (≈ 143 µM) | > 100 µg/mL | > 100 µg/mL | 79 µg/mL (≈ 226 µM) | 0.4 µg/mL (≈ 1.14 µM) | > 100 µg/mL | 1.3 µg/mL (≈ 3.72 µM) | 0.25 µg/mL (≈ 0.715 µM)
2 | CC1(C)S[C@@H]2[C@H](N=CN3CCC(CSCCN)CC3)C(=O)N2[C@H]1C(=O)O [Example 2, 6-[4'-(2"-Aminoethylthiomethyl)-piperidino-methyleneamino]-penicillanic acid hydrochloride] | 40 µg/mL | 0.063 µg/mL | 1.6 µg/mL | 0.32 µg/mL | 0.05 µg/mL | 50 µg/mL | 0.05 µg/mL | 0.05 µg/mL
3 | CC1(C)S[C@@H]2[C@H](/N=C/N3CCCCCC3)C(=O)N2[C@H]1C(=O)O [Mecillinam] | > 100 µg/mL | 0.1 µg/mL (≈ 0.307 µM) | 2 µg/mL (≈ 6.15 µM) | ~1 µg/mL (≈ 3.07 µM) | 0.05 µg/mL (≈ 0.154 µM) | > 100 µg/mL | 0.016 µg/mL (≈ 0.0492 µM) | 0.05 µg/mL (≈ 0.154 µM)
